This is an account of results in patent US9428539B2, “2β,3α,5α-trihydroxy-androst-6-one and preparation methods and use thereof” (Guangzhou Cellprotek Pharmaceutical Co., Ltd., priority 2013, dated 2016).

Series [1] relates to cerebellar granule neurons. The experiment in a line: Glutamate-induced damage of cerebellar granule neurons (FDA staining). The settings on record: glutamate 100 μM, glycine 10 μM, Mg2+-free Locke buffer; 30 min pre-incubation; FDA staining after 24 h. The class given is cell-based. How it is done:
Cerebellar granule neurons cultured in vitro for 8 days were grouped. Treatment groups received MK801 or YC-10 at various concentrations, followed by incubation for 30 min. Following that, model group and all treatment groups were replaced with Mg^2+-free Locke buffer, and added with glutamate (100 μM final concentration), Glycine (10 μM final concentration) and drugs at respective concentrations. Cells were incubated at 37° C. for 30 minutes, replaced with original medium, incubated for further 24 h, followed by FDA staining.

For series [2], the system named is retinal ganglion cell. Nature of the series: Eye high pressure and ischemia injury model, retinal ganglion cell death. Format: in vivo. The settings on record: rats; 20 mg/kg via tail vein before modeling, 2 h, Day 2, Day 3; 130 mmHg, 1 h ischemia; pathological examination at Day 7. The method, then: 10% chloral hydrate was used to anesthetize rats. Eyes were subject to topical anesthesia. Perfusion apparatus was placed 176 cm above rats' eyeballs (resulting in 130 mmHg intra-ocular pressure). 30 G ½ syringe needle was carefully inserted into anterior chamber. The eyeballs became white and starting time of ischemia was recorded. 1 h post ischemia, the syringe needle was quickly withdrawn and eyes were cared by antibiotic eyedrops. Rats were raised back to cage. Drugs were administered 20 before modeling for solvent group and YC-10 group (20 mg/kg). At 2 h, Day 2 and Day 3 post modeling, rats were treated with YC-10 via tail vein. At Day 7 post modeling, eyeballs were obtained for pathological examination.

Series [3] has as its system cerebellar granule neurons. The experiment in a line: Low potassium-induced death of cerebellar granule neurons (FDA staining). The settings on record: 50 μM, 5K (5 mM KCl) BME medium, 24 h. The class given is cell-based. How it is done:
Cerebellar granule neurons were cultured in vitro for 8 days. Treatment groups received YC-10 at various concentrations and incubated for 30 min. Following that, model group and all treatment groups were replaced with 5K (i.e., 5 mM KCl) BME medium (25K BME for control group), and added with YC-10 at respective concentrations. Cells were incubated at 37° C. for 24 h, followed by FDA staining.

In another series the test system is LN18 cells. The experiment in a line: MTT cell survival assay, LN18 cells. The settings on record: 250, 500, 1000 μM, 24 h post treatment, P<0.05 vs control. Format: cell-based. How it is done: (§1) Cell seeding and treatment: Logarithmic phase of LN18 and DBTRG-50MG cells were prepared to cell suspensions with complete medium. Cells were seeded into a 96-well plate at a density of 100 μl per well, 3×10^4/ml. 12 h post seeding, full cell adherence was observed. To the wells was added YC-10 to a final concentration of YC-10 being 250, 500, and 1000 μM, with each concentration group having 5 repeats.
(§2) Reaction of MTT with succinate dehydrogenase: At 24th h of culturing, 10 μl (5 mg/ml) of MTT was added to each well, followed by 4 h incubation. At this time, granulate violet formazan crystalline can be observed in live cells by microscopy.
(§3) Formazan particle dissolution: Supernatant was carefully discharged. To the wells was added DMSO at 100 μl/well to dissolve the crystalline. The mixture was vibrated on a mini oscillator for 5 min and measured for optical density (OD value) at 570 nm for each well by enzyme-linked immunometric assay.
(§4) Each group of experiments was repeated 3 times.
(§5) Survival (%)=OD value in treatment group/OD value in control group*100%.
(§6) All data was presented as mean±SD. SPSS 13.0 statistics package software was used. One-Way ANOVA and t-test were used to analyze the data. Sigmaplot software was used to give FIG. 1.
(In general: Formazan colour is commonly taken as a measure of viable cells.)

The next series concerns DBTRG-50MG cells. Nature of the series: MTT cell survival assay, DBTRG-50MG cells. Format: cell-based. The settings on record: 250, 500, 1000 μM, 24 h post treatment, P<0.05 vs control. The method, then:
as §1, §2, §3, §4, §5, §6

Another series concerns KM mice. Nature of the series: Maximal tolerance dose test. Format: in vivo. The method, then: YC-10 injections at concentration of 25 mg/mL were prepared with 40% hydroxypropyl cyclodextrin, and were injected through tail vein to 30 KM mice (half males and half females, weighted 18-22 g) at does of 0.1 mL/10 g.
The mice were continuously observed. All mice behaved and ate as usual, with bright coat color and fine fur. No abnormal secretions in mouth, eyes, nose, or ears were observed. Mice defecated normally. Mice weights were slighted increase. No mice died. Mice were sacrificed after 14 days, dissected and visual examined on important organs such as heart, liver, spleen, kidney, and gastrointestinal. No abnormal changes were observed.

For series [4], the system named is retinal ganglion cell. Nature of the series: Optic nerve clamping injury model, retinal ganglion cell death. The class given is in vivo. The settings on record: rats; 20 mg/kg via tail vein 20 min before surgery, 2 h post operation, Day 2, Day 3; pathological examination at Day 7. How it is done: 10% chloral hydrate was used to anesthetize rats. YC-10 (20 mg/kg) or solvents were administered via tail vein 20 min before surgery. Eyes were subject to topical anesthesia. Conjunctiva was cut along limbus cornea with corneal scissors and intraocular microforceps. Lateral rectus was bluntly dissected to fully expose optic nerve. A cross action forceps was used to clamp the optic nerve for 5 seconds at 2 mm posterior to the eyeball, and then released. Antibiotic eye ointment was applied post operation to prevent infection. Drugs were administered at 2 h post operation, Day 2, and Day 3. Eyeballs were obtained for pathological examination at Day 7.

On to `C[C@]12N[C@H](Cc3ccccc31)c1ccccc12` [MK801, reference compound], for which the “protection of cerebellar granule neurons from glutamate-induced damage” value in series [1] is listed as “able to prevent cerebella granule neurons from glutamate-induced injury”.

`C[C@@]12CCCC1C1CC(=O)[C@@]3(O)C[C@H](O)[C@@H](O)C[C@]3(C)C1CC2` (stereo partly drawn) [YC-10, 2β,3α,5α-trihydroxy-androst-6-one]: the “protection of retinal ganglion cell from eye high pressure and ischemia-induced death” value in the series on retinal ganglion cell [2] is listed as “reduce or prevent from ischemia-induced death”. Besides, the “protection of cerebellar granule neurons from low potassium-induced death” value in series [3] was “could prevent neuron from low potassium-induced death”. Moreover, the “cell survival rate (tumor cell killing)” value in the series on LN18 cells and in the series with DBTRG-50MG cells was “killed tumor cells in a dose-dependent manner” throughout. Also, in the series on KM mice (250 mg/kg tail vein injection in 40% hydroxypropyl cyclodextrin, observed 14 days), the “toxicity to mouse (behaviour, weight, organ examination)” value is “nontoxic”. The mortality result in the series with KM mice (250 mg/kg tail vein injection, 14 days) is “No mice died”. The “protection of retinal ganglion cell from optic nerve clamping injury-induced death” value in the series on retinal ganglion cell [4] was “slow down or prevent from clamping injury-induced death”. The “protection of cerebellar granule neurons from glutamate-induced damage” value in series [1] is on record as “effective in preventing glutamate-induced excitotoxin damage of cerebellar granule neurons in a dose-dependent manner”.
